One block for each compound: values may come before it. Active and inactive are the calls of the source.
Legend:
[1] = target: Hexokinase (Trypanosoma brucei, UniProt Q38C41); experiment: Confirmation assay for inhibitors of Trypanosoma brucei hexokinase 1-Analogue-first series. [Related pubchem assays (depositor defined):AID1430, AID1632, AID2516, AID2560, AID2579, AID2600, AID449725, AID492951]; type: functional
[2] = target: Ion channel NompC (Danio rerio, UniProt Q7T1G6); experiment: Dose response cell-based high-throughput screening assay for agonists of the transient receptor potential channel N1 (TRPN1). [Related pubchem assays (depositor defined):AID1424, AID1448]; type: functional
[3] = target: Photoreceptor-specific nuclear receptor (Homo sapiens, UniProt Q9Y5X4); type: functional, cell-based;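 also: CHO-S cells with Gal4-NCOR and VP16-NR2E3 two-hybrid luciferase reporter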
[4] = target: Mucolipin-3 (Homo sapiens, UniProt Q8TDD5); experiment: Fluorescence counterscreen assay for […] agonists: dose response cell-based high-throughput screening assay to identify agonists of the transient receptor potential channel ML3 (TRPML3). [Related pubchem assays: 1424, 1448 ]; type: functional
[5] = target: T1, Tyrosine-protein phosphatase non-receptor type 7 (Homo sapiens, UniProt P35236); experiment: SAR analysis of chemical inhibitors of HePTP using a Fluorescent assay - Set 2. [Related pubchem assays (depositor defined):AID1059, AID1077, AID1661, AID2085, AID521]; type: functional
T1 sequence (P35236 whole entry): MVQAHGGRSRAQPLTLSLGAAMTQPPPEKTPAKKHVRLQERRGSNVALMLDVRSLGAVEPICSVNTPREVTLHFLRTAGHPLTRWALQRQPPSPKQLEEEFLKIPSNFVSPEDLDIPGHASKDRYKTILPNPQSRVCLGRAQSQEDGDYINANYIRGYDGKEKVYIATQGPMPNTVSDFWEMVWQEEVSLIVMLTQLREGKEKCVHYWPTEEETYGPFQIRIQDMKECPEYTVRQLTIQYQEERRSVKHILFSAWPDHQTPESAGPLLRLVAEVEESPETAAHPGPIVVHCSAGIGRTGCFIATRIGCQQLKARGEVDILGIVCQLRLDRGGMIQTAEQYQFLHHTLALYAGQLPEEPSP

[6] = target: Dual specificity protein phosphatase 3 (Homo sapiens, UniProt P51452); experiment: SAR VHR1 Fluorescent Assay for In Vitro dose response studies Set 2. [Related pubchem assays (depositor defined):AID1654, AID1661, AID1878]; type: functional
[7] = target: T2, Sphingosine 1-phosphate receptor 4 (Homo sapiens, UniProt O95977); experiment: potency of S1P4 activators – cell-based, fluorescence, synthesized compounds, late-stage follow-up (AID 463107); type: functional
T2 sequence (O95977 whole entry): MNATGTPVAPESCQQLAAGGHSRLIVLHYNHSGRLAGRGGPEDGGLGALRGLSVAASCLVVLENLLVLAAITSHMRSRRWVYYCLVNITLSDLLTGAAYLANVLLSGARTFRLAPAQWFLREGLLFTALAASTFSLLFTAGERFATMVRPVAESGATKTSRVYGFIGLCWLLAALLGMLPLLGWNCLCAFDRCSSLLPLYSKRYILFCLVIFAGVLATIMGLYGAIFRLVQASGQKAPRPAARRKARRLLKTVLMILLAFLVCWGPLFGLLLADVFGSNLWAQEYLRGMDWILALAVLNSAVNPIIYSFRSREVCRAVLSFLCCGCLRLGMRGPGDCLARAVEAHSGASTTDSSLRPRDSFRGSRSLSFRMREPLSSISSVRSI

[8] = test system: T-cell; experiment: loss of vesicle association with mouse CD8+ T cells – mouse 2C CD8+ T cells, flow cytometry, dose response (AID 485284); type: functional
[9] = target: T3, Coagulation factor XII (Homo sapiens, UniProt P00748); type: functional;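 also: activated factor XIIa alpha cleaving a fluorogenic AMC peptide substrate; inhibitor potency from loss of enzyme activity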
T3 sequence (P00748 whole entry): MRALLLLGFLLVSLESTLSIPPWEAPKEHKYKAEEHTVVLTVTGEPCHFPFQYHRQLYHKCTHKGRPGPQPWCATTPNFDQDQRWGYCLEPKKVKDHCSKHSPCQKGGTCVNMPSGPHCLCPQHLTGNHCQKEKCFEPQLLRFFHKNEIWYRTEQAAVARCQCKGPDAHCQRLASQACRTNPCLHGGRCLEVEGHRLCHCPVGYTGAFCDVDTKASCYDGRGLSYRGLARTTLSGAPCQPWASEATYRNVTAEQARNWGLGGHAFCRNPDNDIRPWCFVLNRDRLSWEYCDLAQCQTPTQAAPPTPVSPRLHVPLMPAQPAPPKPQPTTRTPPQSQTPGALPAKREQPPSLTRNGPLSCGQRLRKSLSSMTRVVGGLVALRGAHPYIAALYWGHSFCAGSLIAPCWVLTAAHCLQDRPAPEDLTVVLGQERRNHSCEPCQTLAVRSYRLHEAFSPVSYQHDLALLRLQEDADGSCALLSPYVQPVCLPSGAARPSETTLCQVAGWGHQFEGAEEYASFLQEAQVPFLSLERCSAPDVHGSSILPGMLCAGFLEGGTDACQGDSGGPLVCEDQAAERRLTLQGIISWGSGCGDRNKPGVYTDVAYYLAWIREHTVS

[10] = target: Type-1 angiotensin II receptor (Homo sapiens, UniProt P30556); experiment: agonist activity at AGTR1 – cell-based, uHTS hits, selectivity assay for APJ receptor agonist project, dose response (AID 488865); type: functional;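 also: beta-arrestin recruitment to AT1 measured by enzyme fragment complementation luminescence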
[11] = viability loss of HPDE-C7K cells – cell-based, fluorescence, HTS, primary screen (AID 431); type: functional; settings: Homo sapiens
[12] = target: T4, Heat shock factor protein 1 (Mus musculus, UniProt P38532); experiment: enhancement of HSF1-driven luciferase signal – cell-based, NIH3T3, luminescence, dose retest, confirmation (AID 435004); type: functional;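 also: stress induced by proteasome inhibitor MG132 added 30 min after compound; luciferase reporter driven by HSF1 response element in NIH3T3 cells; actives raise luminescence as potentiators of the MG132 stress response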
T4 sequence (P38532 whole entry): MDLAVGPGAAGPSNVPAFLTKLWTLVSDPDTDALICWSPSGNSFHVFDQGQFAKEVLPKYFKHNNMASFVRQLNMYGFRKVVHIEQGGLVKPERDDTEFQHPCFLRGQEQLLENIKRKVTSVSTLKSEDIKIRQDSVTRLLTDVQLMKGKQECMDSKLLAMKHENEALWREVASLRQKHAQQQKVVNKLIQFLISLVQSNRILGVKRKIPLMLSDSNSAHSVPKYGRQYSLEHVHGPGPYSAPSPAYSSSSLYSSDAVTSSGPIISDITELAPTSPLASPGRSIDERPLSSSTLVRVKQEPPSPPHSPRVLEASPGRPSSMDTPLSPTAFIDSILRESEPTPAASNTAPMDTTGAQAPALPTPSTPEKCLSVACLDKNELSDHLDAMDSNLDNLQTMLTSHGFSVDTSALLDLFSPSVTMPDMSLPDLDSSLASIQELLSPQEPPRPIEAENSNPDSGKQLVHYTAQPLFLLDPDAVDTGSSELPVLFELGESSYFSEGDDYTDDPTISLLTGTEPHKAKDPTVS

[13] = target: T5, Short transient receptor potential channel 4 (Mus musculus, UniProt Q9QUQ5); experiment: potentiation of DAMGO-evoked TRPC4 calcium signal – cell-based, HEK293 TRPC4/mu-opioid, Fluo-4 calcium, EC20 DAMGO, dose response (AID 434941); type: functional
T5 sequence (Q9QUQ5 whole entry): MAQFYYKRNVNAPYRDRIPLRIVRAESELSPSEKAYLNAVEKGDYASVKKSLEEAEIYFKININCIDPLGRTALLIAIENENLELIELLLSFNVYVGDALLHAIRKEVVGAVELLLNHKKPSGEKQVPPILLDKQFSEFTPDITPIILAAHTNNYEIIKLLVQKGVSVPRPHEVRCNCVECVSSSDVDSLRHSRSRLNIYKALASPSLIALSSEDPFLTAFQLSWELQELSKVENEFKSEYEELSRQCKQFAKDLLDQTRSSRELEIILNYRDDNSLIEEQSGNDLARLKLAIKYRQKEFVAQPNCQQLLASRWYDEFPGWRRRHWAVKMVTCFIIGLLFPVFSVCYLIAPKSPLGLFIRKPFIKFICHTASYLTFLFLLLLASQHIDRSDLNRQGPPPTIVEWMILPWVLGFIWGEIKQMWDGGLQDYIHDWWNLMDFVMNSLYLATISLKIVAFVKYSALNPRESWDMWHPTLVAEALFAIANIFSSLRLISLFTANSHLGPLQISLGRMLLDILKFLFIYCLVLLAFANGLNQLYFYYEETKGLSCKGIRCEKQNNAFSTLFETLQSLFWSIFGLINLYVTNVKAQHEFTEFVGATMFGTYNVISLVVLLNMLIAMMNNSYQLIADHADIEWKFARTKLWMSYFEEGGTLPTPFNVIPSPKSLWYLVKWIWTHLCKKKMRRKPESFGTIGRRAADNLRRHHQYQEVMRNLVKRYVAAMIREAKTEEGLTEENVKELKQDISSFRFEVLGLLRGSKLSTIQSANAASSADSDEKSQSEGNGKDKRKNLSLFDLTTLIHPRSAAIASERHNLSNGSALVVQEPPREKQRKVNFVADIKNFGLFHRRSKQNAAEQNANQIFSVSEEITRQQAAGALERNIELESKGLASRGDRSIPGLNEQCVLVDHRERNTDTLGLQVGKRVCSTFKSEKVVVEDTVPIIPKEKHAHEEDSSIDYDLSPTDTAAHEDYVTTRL

[14] = target: T6, High affinity choline transporter 1 (Homo sapiens, UniProt Q9GZV3); experiment: human choline transporter blockers, potency – cell-based, 5-point CRC, membrane potential dye, dose response (AID 504840); type: functional
T6 sequence (Q9GZV3 whole entry): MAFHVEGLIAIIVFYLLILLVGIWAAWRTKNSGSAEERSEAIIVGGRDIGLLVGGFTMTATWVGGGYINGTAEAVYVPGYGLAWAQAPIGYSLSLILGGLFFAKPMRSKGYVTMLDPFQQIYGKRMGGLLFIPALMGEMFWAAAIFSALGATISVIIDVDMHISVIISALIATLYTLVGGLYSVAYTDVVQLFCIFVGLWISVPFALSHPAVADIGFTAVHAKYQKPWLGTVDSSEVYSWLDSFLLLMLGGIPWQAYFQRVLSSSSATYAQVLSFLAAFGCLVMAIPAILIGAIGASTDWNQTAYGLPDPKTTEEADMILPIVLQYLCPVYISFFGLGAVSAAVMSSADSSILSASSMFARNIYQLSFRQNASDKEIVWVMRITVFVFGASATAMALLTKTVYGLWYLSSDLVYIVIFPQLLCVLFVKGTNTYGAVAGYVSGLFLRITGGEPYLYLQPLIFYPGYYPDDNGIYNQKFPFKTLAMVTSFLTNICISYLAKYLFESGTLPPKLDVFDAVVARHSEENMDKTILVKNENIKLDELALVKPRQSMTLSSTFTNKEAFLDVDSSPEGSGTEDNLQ

[15] = HPDE-C7 pancreatic duct cell viability loss – fluorescence, HTS (AID 430); type: functional, cell-based; settings: Homo sapiens
[16] = target: T5, Short transient receptor potential channel 4; experiment: calcium entry via TRPC4 opening agents – cell-based, HEK293 TRPC4/mu-opioid, Fluo-4 calcium, dose response (AID 434937); type: functional

Photoreceptor-specific nuclear receptor, sequence (Q9Y5X4 whole entry, the tested form may be a part): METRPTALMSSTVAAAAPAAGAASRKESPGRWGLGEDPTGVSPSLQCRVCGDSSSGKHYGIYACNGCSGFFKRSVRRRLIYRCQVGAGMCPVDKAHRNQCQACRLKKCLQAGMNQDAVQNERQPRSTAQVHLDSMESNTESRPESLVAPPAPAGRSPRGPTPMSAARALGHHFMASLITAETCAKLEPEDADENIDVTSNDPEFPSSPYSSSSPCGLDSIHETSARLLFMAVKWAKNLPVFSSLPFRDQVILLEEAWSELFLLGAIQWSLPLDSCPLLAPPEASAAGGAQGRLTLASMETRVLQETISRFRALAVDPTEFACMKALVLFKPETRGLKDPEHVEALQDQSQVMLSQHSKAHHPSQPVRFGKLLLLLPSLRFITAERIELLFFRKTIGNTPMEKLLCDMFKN
Hexokinase, sequence (Q38C41 whole entry): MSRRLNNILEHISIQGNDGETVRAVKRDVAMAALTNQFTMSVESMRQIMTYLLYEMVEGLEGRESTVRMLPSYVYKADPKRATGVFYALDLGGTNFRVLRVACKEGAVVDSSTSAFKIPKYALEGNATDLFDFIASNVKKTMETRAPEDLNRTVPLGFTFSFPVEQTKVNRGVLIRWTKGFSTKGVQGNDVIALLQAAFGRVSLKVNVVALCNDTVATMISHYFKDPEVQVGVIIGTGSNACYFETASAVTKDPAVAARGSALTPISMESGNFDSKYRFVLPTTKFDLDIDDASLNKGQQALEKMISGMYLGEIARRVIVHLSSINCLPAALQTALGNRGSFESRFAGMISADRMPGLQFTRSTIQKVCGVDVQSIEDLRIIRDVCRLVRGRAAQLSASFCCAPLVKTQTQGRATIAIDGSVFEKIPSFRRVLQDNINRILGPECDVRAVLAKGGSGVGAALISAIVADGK
Ion channel NompC, sequence (Q7T1G6 whole entry, the tested form may be a part): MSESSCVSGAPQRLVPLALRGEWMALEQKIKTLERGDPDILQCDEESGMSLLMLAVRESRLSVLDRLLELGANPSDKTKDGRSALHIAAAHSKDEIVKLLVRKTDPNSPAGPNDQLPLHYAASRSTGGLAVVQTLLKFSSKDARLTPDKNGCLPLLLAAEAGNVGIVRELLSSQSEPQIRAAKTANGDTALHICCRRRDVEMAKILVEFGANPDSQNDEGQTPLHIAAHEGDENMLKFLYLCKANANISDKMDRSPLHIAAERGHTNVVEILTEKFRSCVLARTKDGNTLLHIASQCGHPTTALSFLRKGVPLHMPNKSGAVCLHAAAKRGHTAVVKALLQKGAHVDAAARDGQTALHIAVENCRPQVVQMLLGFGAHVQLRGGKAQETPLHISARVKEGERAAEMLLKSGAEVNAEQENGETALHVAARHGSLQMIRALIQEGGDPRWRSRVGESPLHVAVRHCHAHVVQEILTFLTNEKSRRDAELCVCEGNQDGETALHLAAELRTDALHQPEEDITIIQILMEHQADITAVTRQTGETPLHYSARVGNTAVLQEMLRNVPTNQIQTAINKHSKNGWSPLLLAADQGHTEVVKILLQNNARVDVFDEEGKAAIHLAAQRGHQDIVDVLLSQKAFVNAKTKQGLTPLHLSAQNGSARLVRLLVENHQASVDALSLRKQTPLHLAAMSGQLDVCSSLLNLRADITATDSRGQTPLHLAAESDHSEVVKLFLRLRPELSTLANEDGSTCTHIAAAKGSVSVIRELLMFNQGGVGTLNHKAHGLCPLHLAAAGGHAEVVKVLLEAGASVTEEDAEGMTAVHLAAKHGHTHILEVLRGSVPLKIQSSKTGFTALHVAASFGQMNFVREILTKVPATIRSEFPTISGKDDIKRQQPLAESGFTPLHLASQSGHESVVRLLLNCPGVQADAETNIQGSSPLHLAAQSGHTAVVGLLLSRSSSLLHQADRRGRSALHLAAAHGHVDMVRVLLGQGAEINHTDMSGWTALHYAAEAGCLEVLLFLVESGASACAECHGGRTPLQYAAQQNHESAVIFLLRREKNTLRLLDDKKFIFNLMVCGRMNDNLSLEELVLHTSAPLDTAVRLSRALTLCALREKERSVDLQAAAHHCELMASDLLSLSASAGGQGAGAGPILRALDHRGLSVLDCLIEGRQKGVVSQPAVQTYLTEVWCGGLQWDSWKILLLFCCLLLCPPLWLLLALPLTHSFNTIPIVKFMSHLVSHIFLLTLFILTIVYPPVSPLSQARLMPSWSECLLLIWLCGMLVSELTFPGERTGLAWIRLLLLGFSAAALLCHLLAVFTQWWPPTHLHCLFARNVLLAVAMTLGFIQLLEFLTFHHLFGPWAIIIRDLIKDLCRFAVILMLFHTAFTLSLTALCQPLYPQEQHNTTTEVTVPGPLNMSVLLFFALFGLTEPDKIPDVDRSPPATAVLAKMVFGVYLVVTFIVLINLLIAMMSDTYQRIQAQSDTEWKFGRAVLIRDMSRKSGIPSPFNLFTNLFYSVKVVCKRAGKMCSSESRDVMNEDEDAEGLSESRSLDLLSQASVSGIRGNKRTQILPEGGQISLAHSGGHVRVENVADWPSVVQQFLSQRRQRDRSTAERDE
Type-1 angiotensin II receptor, sequence (P30556 whole entry, the tested form may be a part): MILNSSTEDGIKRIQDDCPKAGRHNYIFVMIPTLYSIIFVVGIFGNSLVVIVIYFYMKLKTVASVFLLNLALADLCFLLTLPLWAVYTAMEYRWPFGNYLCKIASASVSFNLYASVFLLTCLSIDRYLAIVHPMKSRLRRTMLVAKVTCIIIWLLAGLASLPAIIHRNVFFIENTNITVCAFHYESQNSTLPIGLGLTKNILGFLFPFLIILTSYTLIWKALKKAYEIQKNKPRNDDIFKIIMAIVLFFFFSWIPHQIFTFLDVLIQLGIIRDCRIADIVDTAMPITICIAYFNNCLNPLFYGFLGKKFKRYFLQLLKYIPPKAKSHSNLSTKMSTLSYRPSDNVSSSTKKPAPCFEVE
Mucolipin-3, sequence (Q8TDD5 whole entry): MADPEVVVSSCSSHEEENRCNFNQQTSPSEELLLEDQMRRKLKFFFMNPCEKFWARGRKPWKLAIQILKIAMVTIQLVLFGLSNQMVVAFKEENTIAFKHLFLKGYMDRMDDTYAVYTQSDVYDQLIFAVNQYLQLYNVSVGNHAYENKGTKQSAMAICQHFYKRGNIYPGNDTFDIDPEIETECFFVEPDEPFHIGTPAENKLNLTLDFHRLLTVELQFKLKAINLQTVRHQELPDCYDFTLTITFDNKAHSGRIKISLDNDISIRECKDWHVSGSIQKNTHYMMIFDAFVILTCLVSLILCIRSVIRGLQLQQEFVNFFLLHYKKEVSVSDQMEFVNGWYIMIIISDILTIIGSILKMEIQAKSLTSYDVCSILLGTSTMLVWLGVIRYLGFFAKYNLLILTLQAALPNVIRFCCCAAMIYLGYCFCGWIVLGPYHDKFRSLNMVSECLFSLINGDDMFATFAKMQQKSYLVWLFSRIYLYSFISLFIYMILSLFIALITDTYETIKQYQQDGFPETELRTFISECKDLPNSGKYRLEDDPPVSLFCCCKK
Dual specificity protein phosphatase 3, sequence (P51452 whole entry): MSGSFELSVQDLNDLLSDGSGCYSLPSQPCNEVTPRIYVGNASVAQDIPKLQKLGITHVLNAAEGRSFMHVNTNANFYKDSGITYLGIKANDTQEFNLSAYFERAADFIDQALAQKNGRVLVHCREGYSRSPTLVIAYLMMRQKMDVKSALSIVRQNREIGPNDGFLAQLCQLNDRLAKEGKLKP

SMILES: O=C(Nc1cc(Cl)ccc1C(=O)O)c1ccc(C(F)(F)F)cc1
IC50 [1]: > 25 µM (inactive)

SMILES: N#C/C(=N\Nc1ccc(Cl)c(Cl)c1)C(=O)C1CC1
EC50 [2]: > 9.97 µM (inactive)
IC50 [3]: 1.29 µM (active)
EC50 [4]: > 29.9 µM (not active)

SMILES: S=C(Nc1ccccc1)N1CCN(Cc2ccc3c(c2)OCO3)CC1
IC50 [5]: > 100 µM (inactive)
IC50 [6]: > 100 µM (inactive)

SMILES: O=C(NCCN1CCN(c2ccccc2)CC1)c1cccc(Br)c1
EC50 [8]: 7.17 µM (active)

SMILES: CCCCc1cc(O)c(CCCC)c(O)c1
EC50 [11]: 9.78 µM (active)
EC50 [12]: 9.33 µM (active)
EC50 [13]: 1.88 µM (active)
IC50 [14]: 6.03 µM (active)
EC50 [15]: 8.86 µM (active)
EC50 [16]: 0.473 µM (active)

Further lines, results first:

EC50 [7]: 12 µM (inactive)
SMILES: COCc1ccc(OCCOc2ccc(Cl)cc2Cl)c(Cl)n1

IC50 [9]: 1.05 µM (active)
SMILES: COC(=O)c1n[nH]c(NC(=O)c2ccccc2Cl)n1

EC50 [10]: > 100 µM (inactive)
SMILES: CCCc1cc(C(=O)Nc2sc3c(c2C(=O)OCC)CCCC3)no1
